According to patent US11202836B2, “PSMA targeted conjugate compounds and uses thereof” (CASE WESTERN RESERVE UNIVERSITY, priority 2018, dated 2021):
*1 amine or outer side, *2 acyl side, *3 side chain or, on linkers, in order; H or OH if unused. Where a SMILES comes first, the peptide text is derived from it. [ ]: non-standard residue; d: D form. γGlu = O=C(O)[C@H](CCC(=O)[*:2])N[*:1]; X1 = O=C(C1CCC(CN[*:1])CC1)[*:2]; CO = O=C([*:1])[*:2]; Ahx = NCCCCCC(=O)O

Key:
[1] = molecular target: T1, PSMA (Homo sapiens, UniProt Q04609); assay: Competitive binding assay against 3H-ZJ24 on PC3pip cells; conditions: 10 nM 3H-ZJ24, read-out: IC50, competition binding to PSMA
T1 construct: expressed in transfected cells; host or cells: PC3pip cells (retrovirally transfected, from Dr. Michel Sadelain, MSKCC)
Experimental: The assay was carried as previously reported by incubation PC3pip cells with different concentrations of drug conjugates in the presence of 10 nM N—[N—[(S)-1,3-dicarboxypropyl]carbamoyl]-S-[^3H]-methyl-L-cysteine (^3H-ZJ24) (GE Healthcare Life Sciences, Pittsburgh, Pa.). Radioactivity of cell pellet was counted by scintillation counter. The concentration required to inhibit 50% of binding was determined (IC50) by GraphPad Prism 3.0.

[2] = system: PC3pip cells; assay: Example 1 cytotoxicity assay (Dojindo CCK8), PSMA-expressing cells; format: cell-based; conditions: continuous 48 hours
Experimental: (§1) PC3Pip and PC3Flu cells (2000 cells/100 μL/well) were plated in 96 well plates and rested for 24 hours to adhere to the plate surface. To each well, we added 10 μL of an 11× concentrated solution of doxorubicin or conjugate. Each drug dose was tested in groups of six wells. Dojindo CCK8 assays were used to determine relative cell survival of treated wells compared with untreated controls. This is a […] assay for determination of cell viability and proliferation. A water-soluble tetrazolium salt, WST-8, is reduced by dehydrogenase activity in the cell which produces an orange dye with relative amounts quantified by absorbance. Briefly, 10 μL assay solution was added to each well, the plate was left to incubate while orange color was produced, the absorption of the solution in the plate was read at 450 nm, and the cell viabilities were calculated.

[3] = system: PC3flu cells; assay: Example 1 cytotoxicity assay (Dojindo CCK8), PSMA-negative cells; format: cell-based; conditions: continuous 48 hours
Experimental: as §1

[4] = system: PC3Pip and PC3Flu cells; assay: Example 1 in vitro cellular uptake (doxorubicin fluorescence microscopy); format: cell-based; conditions: 1 μM, 90 minutes or 48 hours
Experimental: PC3Pip and PC3flu cells (1.5×10^5) were plated on coverslips and allowed to adhere for 36-48 hours. Cells were incubated in 1 μM of free doxorubicin or the various PSMA-1-Doxorubicin conjugates in RPMI media. Similar experiments are reported widely in the literature, with doses usually in the μM range because of doxorubicin's relatively dim fluorescence, at least compared with some of the commercially available dyes used in our lab. This dose was chosen to balance that relatively dim fluorescence with a goal of attempting to maintain selectivity.
Next, cells were washed 3 times with RPMI media, fixed with 4% paraformaldehyde for 10 minutes, and washed twice with phosphate-buffered saline (PBS). The cells were counterstained with DAPI nuclear staining, mounted on microscope slides with a 50% mounting solution mixture of PBS and glycol, and the coverslips were sealed with clear nail polish. Fluorescent imaging was performed with Leica DM4000B fluorescence microscopy. DAPI imaging used the Blue filter with excitation/emission at 410/455 nm. Doxorubicin was imaged with the Texas Red filter with Ex/Em 587/612 nm.

[5] = system: PC3Pip flank tumors; assay: Example 1 mouse PC3Pip flank tumor xenograft study; format: in vivo, mice; conditions: 2 mg/kg doxorubicin or molar equivalent, day 0, 7, 14, i.v.
Experimental: All animal procedures were performed according to the protocols approved by the Institutional Animal Care and Use Committee (IACUC). Our approval is Case Western Reserve University IACUC #2015-0033. Athymic nude mice aged 6-8 weeks were implanted subcutaneously with 1×10^6 PC3Pip cells in 100 μL Matrigel on the right flank. Tumors were allowed to grow for two weeks. Mice were then treated with three doses of free doxorubicin or PSMA-1-MMCCH-Dox in PBS on day 0, 7, and 14 of the study via tail vein injection. Dose used was 2 mg/kg doxorubicin, or the equivalent molar dosage of the PSMA-targeted prodrug. Tumor dimensions were measured using calipers twice per week, and mouse weights were recorded on these days, as well. The study duration was 21 days.

T1 sequence (Q04609 whole entry): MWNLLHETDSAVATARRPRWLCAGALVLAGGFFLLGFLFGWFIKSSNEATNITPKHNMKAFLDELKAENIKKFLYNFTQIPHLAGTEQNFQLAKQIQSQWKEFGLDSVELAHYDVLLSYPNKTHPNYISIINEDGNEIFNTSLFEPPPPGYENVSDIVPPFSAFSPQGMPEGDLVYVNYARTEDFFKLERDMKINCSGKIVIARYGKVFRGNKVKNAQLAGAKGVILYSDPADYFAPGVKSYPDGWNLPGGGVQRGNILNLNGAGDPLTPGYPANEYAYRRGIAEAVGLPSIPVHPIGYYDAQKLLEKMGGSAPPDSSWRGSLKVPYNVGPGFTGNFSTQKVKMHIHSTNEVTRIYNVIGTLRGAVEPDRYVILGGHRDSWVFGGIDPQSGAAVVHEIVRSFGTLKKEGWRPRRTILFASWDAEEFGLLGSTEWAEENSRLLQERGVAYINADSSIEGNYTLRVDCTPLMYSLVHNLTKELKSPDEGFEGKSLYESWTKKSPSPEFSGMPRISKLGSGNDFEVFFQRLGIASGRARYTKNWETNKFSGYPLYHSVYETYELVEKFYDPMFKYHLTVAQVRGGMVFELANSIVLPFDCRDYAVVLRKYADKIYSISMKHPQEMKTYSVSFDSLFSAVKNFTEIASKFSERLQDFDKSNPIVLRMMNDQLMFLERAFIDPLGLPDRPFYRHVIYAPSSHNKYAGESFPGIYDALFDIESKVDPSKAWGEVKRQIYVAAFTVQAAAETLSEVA

| IC50 [1] [nM] | weight loss over the duration of the study ([5]; 21 days) [%] | SMILES | growth inhibition of PC3Pip cells [2] | growth inhibition of PC3Flu cells [3] | subcellular pattern of doxorubicin signal [4] | uptake in PC3Pip compared with PC3Flu cells [4] | tumor growth [5] |
| --- | --- | --- | --- | --- | --- | --- | --- |
| 2.3 |  | NCCCC[C@H](NC(=O)[C@H](CCC(=O)O)NC(=O)[C@H](CCC(=O)O)NC(=O)[C@H](CCC(=O)O)NC(=O)CCCCCNC(=O)C1CCC(CNC(=O)CC[C@H](NC(=O)N[C@@H](CCC(=O)O)C(=O)O)C(=O)O)CC1)C(N)=O (some centres unmarked) [PSMA-1] ({Glu-CO-γGlu}-[X1][Ahx]EEEK-NH2; C-terminus assumed) |  |  |  |  |  |
| 11.7 |  | CSC[C@H](NC(=O)N[C@@H](CCC(=O)O)C(=O)O)C(=O)O [ZJ24, reference compound] |  |  |  |  |  |
|  | 17.3 | COc1cccc2c1C(=O)c1c(O)c3c(c(O)c1C2=O)C[C@@](O)(C(=O)CO)C[C@@H]3O[C@H]1C[C@H](N)[C@H](O)[C@H](C)O1 [doxorubicin] | potent, equal growth inhibition | potent, equal growth inhibition | primarily in the nucleus | equally seen in PC3Pip and PC3Flu cell lines | more rapid tumor growth |
